According to the NIST ThermoML archive (doi:10.1021/acs.jced.7b00750):

Columns and labels:
[1] = 100 kPa, Liquid, Vibrating tube method
[2] = xn = mol fraction of the nth substance listed; conditions: 100 kPa, Liquid, Vibrating tube method, x2 = 0

O [water]
[1]
Conditions	mass density [kg/m3]
274.15 K	999.899
275.15 K	999.94
276.15 K	999.964
277.15 K	999.972
278.15 K	999.964
279.15 K	999.94
280.15 K	999.901
281.15 K	999.848
282.15 K	999.781
283.15 K	999.699
323.15 K	988.03
333.15 K	983.191

O [water] + CNC(N)=O
[2]
Conditions	mass density [kg/m3]
274.15 K	999.899
275.15 K	999.94
276.15 K	999.964
277.15 K	999.972
278.15 K	999.964
279.15 K	999.94
280.15 K	999.901
281.15 K	999.848
282.15 K	999.781
283.15 K	999.699
323.15 K	988.03
333.15 K	983.191
